20 compounds from US11234971B2, “Methods of treating cancer comprising administration of a glucocorticoid receptor modulator and a cancer chemotherapy agent” (Corcept Therapeutics Incorporated, priority 2018, dated 2022) can be followed below.

Assay [1] concerns OVCAR-5 human ovarian cancer cells. Description: OVCAR-5 cell growth (Cell Titer-Glo) with chemotherapy agents with or without dexamethasone and relacorilant. It counts as cell-based. As to conditions: for IC50 (decrease in IC50 of the agent from dexamethasone-alone to relacorilant + dexamethasone) / Max effect (increase in maximal cell toxicity of the agent from dexamethasone-alone to relacorilant + dexamethasone): OVCAR-5, 100 nM dexamethasone, 300 nM relacorilant; for Max effect (increase in maximal cell toxicity of the agent from dexamethasone-alone to relacorilant + dexamethasone): high doses of chemotherapeutic. The procedure:
The initial cell density was chosen to be low enough to allow for several population doublings (typically 3 to 5) during the indicated incubation period. […] After 48 hours of incubation, serially diluted test agents in growth medium were added to each well. After 72 hours of culture, the plated cells and Cell Titer-Glo® (Promega G7571) reagents were brought to room temperature to equilibrate for 30 minutes. 200 μL of Cell Titer-Glo® reagent was then added to each well, the plate was shaken for two minutes, and then left to equilibrate for ten minutes. The Cell Titer-Glo® cell viability assay uses ATP levels to determine cell numbers. After this equilibration, luminescence was read on the Biotech Synergy II microplate reader. The percent control (% C) of cell growth for each test concentration was calculated relative to untreated wells. All tests were performed in quadruplicate. Individual assay plates were evaluated for appropriate signal and well-to-well variance in the control wells for quality control.

Assay [2] has as its system whole blood gene expression. Description: Whole blood gene expression after 28 days of enzalutamide in cancer patients. It counts as in vivo. As to conditions: human cancer patients, all p-values greater than 0.5. An excerpt:
Enzalutamide is an androgen receptor antagonist used in the treatment of hormone-sensitive cancers such as prostate cancer. […] The small circular markers indicate the change in gene expression for individual genes. None of the gene expression levels changes following enzalutamide (as compared to baseline levels) reach significance (all p-values are greater than 0.5).

A further assay relates to MIA PaCa-2 xenograft. Description: MIA PaCa-2 xenograft tumor growth in immunodeficient mice. The format is in vivo. The following applies: single agent. An excerpt:
The present example, Example 3, provides results of administration of the glucocorticoid receptor modulator relacorilant to cancerous cells. […] The MIA PaCa-2 xenograft model uses MIA PaCa-2 cell-line cells (pancreatic tumor cells derived from a pancreatic adenocarcinoma from a patient) engrafted into immunodeficient mice. The ovarian OVCAR-5 cell line is derived from a human epithelial carcinoma of the ovary, and was established from ascitic fluid obtained (prior to cytotoxic treatment) from a patient with progressive ovarian adenocarcinoma.
FIG. 10A. Relacorilant sensitizes the MIA PaCa-2 xenograft to paclitaxel. Tumor volume of PaCa-2 xenograft tumors implanted in immunodeficient mice is shown as a function of time (days) after implantation in the presence of vehicle (filled circles), paclitaxel (7.5 mg/kg; filled squares), relacorilant alone (upwardly pointing triangles), and relacorilant+7.5 mg/kg paclitaxel (downwardly pointing triangles). 7.5 mg/kg paclitaxel was administered three times (at the days indicated by the dashed vertical lines, indicating days 8, 12, and 16 following tumor implantation into the mice).
FIG. 10B. Relacorilant with Paclitaxel Reduces MIA PaCa-2 xenograft Tumor Volume. Initial tumor volume of PaCa-2 xenograft tumors implanted in immunodeficient mice was less than 400 cubic millimeters (mm^3). […] Tumor size progression is thus indicated by lines descending from the top (100%) value. The tumor-bearing mice were treated with vehicle, relacorilant (30 mg/kg every day), paclitaxel (three doses of 7.5 mg/kg paclitaxel, one dose administered on each of the days indicated in FIG. 10A), and the combination relacorilant (30 mg/kg every day) with paclitaxel (7.5 mg/kg doses of paclitaxel each administered on days 8, 12, and 16 post implantation). […] Xenograft tumor growth was slowed by combined relacorilant+paclitaxel as compared to either paclitaxel alone or relacorilant alone. Relacorilant thus enhanced sensitivity to paclitaxel in the pancreatic MIA PaCa-2 xenograft model.

With `CC(=O)Nc1cccc(-n2c(=O)n(C3CC3)c(=O)c3c(Nc4ccc(I)cc4F)n(C)c(=O)c(C)c32)c1` [Trametinib], in assay [1], the “IC50 (decrease in IC50 of the agent from dexamethasone-alone to relacorilant + dexamethasone)” value is reported as “−” and the “Max effect (increase in maximal cell toxicity of the agent from dexamethasone-alone to relacorilant + dexamethasone)” value is recorded as “−”. With `CCN(CC)CCCC(C)Nc1ccnc2cc(Cl)ccc12` (stereo not shown) [Chloroquine], the “IC50 (decrease in IC50 of the agent from dexamethasone-alone to relacorilant + dexamethasone)” value in assay [1] was “−”.

As to `CNC(=O)c1ccc(N2C(=S)N(c3ccc(C#N)c(C(F)(F)F)c3)C(=O)C2(C)C)cc1F` [enzalutamide], the “changes in gene expression levels compared to baseline” value in assay [2] is on record as “did not result in any significant changes”. As for `O=C(O)c1ccc(-c2c[nH]c3ncc(-c4ccccc4)cc23)cc1C1CCCC1` [GSK650394], in assay [1], the “IC50 (decrease in IC50 of the agent from dexamethasone-alone to relacorilant + dexamethasone)” value is reported as “−” and the “Max effect (increase in maximal cell toxicity of the agent from dexamethasone-alone to relacorilant + dexamethasone)” value is given as “−”.

Take `CS(=O)(=O)CCNCc1ccc(-c2ccc3ncnc(Nc4ccc(OCc5cccc(F)c5)c(Cl)c4)c3c2)o1` [Lapatinib]: in assay [1], the “IC50 (decrease in IC50 of the agent from dexamethasone-alone to relacorilant + dexamethasone)” value is “+ (~10-59% decrease in IC50 from the dexamethasone-alone to the relacorilant + dexamethasone treatments)” and the “Max effect (increase in maximal cell toxicity of the agent from dexamethasone-alone to relacorilant + dexamethasone)” value is recorded as “−”. Turning to `COc1cccc2c1C(=O)c1c(O)c3c(c(O)c1C2=O)C[C@@](O)(C(=O)CO)C[C@@H]3O[C@H]1C[C@H](N)[C@H](O)[C@H](C)O1` [Doxorubicin], the “IC50 (decrease in IC50 of the agent from dexamethasone-alone to relacorilant + dexamethasone)” value in assay [1] was “+ (~10-59% decrease in IC50 from the dexamethasone-alone to the relacorilant + dexamethasone treatments)”.

With `COc1cc([C@@H]2c3cc4c(cc3[C@@H](O[C@@H]3O[C@@H]5CO[C@@H](C)O[C@H]5[C@H](O)[C@H]3O)[C@H]3COC(=O)[C@H]23)OCO4)cc(OC)c1O` [Etoposide], in assay [1], the “IC50 (decrease in IC50 of the agent from dexamethasone-alone to relacorilant + dexamethasone)” value is recorded as “+ (~10-59% decrease in IC50 from the dexamethasone-alone to the relacorilant + dexamethasone treatments)” and the “Max effect (increase in maximal cell toxicity of the agent from dexamethasone-alone to relacorilant + dexamethasone)” value is listed as “−”.

Turning to `C#Cc1cccc(Nc2ncnc3cc(OCCOC)c(OCCOC)cc23)c1` [Erlotinib], the “IC50 (decrease in IC50 of the agent from dexamethasone-alone to relacorilant + dexamethasone)” value in assay [1] is “−”. On to `CC(=O)O[C@H]1C(=O)[C@@]2(C)[C@H]([C@H](OC(=O)c3ccccc3)[C@]3(O)C[C@H](OC(=O)[C@H](O)[C@@H](NC(=O)c4ccccc4)c4ccccc4)C(C)=C1C3(C)C)[C@]1(OC(C)=O)CO[C@@H]1C[C@@H]2O` [paclitaxel], for which the “tumor growth (tumor volume over time)” value in the assay with MIA PaCa-2 xenograft (paclitaxel 7.5 mg/kg on days 8, 12 and 16) is given as “ineffective in delaying tumor growth”. Moreover, the “time to progression (fraction of tumors whose volume remained below 400 mm^3)” value in the assay with MIA PaCa-2 xenograft (relacorilant 30 mg/kg every day or paclitaxel 7.5 mg/kg on days 8, 12, 16) was “ineffective alone in delaying tumor growth”. Consider `CCc1c2c(nc3ccc(OC(=O)N4CCC(N5CCCCC5)CC4)cc13)-c1cc3c(c(=O)n1C2)COC(=O)[C@]3(O)CC` [Irinotecan], for which, in assay [1], the “IC50 (decrease in IC50 of the agent from dexamethasone-alone to relacorilant + dexamethasone)” value is “+ (~10-59% decrease in IC50 from the dexamethasone-alone to the relacorilant + dexamethasone treatments)” and the “Max effect (increase in maximal cell toxicity of the agent from dexamethasone-alone to relacorilant + dexamethasone)” value is recorded as “−”. Turning to `CCC1=C[C@@H]2CN(C1)Cc1c([nH]c3ccccc13)[C@@](C(=O)OC)(c1cc3c(cc1OC)N(C)[C@H]1[C@@](O)(C(=O)OC)[C@H](OC(C)=O)[C@]4(CC)C=CCN5CC[C@]31[C@@H]54)C2` [Vinorelbine], the “IC50 (decrease in IC50 of the agent from dexamethasone-alone to relacorilant + dexamethasone)” value in assay [1] is reported as “+ (~10-59% decrease in IC50 from the dexamethasone-alone to the relacorilant + dexamethasone treatments)”. For `CC1(C)CCC(CN2CCN(c3ccc(C(=O)NS(=O)(=O)c4ccc(NCC5CCOCC5)c([N+](=O)[O-])c4)c(Oc4cnc5[nH]ccc5c4)c3)CC2)=C(c2ccc(Cl)cc2)C1` [Venetoclax], in assay [1], the “IC50 (decrease in IC50 of the agent from dexamethasone-alone to relacorilant + dexamethasone)” value is “+ (~10-59% decrease in IC50 from the dexamethasone-alone to the relacorilant + dexamethasone treatments)” and the “Max effect (increase in maximal cell toxicity of the agent from dexamethasone-alone to relacorilant + dexamethasone)” value was “−”. Turning to `Cc1c[nH]c(-c2cnc(NCCNc3ccc(C#N)cn3)nc2-c2ccc(Cl)cc2Cl)n1` [CHIR-99021], in assay [1], the “IC50 (decrease in IC50 of the agent from dexamethasone-alone to relacorilant + dexamethasone)” value is given as “−” and the “Max effect (increase in maximal cell toxicity of the agent from dexamethasone-alone to relacorilant + dexamethasone)” value was “−”. As for `Nc1nc2[nH]cc(CCc3ccc(C(=O)N[C@@H](CCC(=O)O)C(=O)O)cc3)c2c(=O)[nH]1` [Pemetrexed], the “IC50 (decrease in IC50 of the agent from dexamethasone-alone to relacorilant + dexamethasone)” value in assay [1] is reported as “++ (>60% decrease in IC50 from the dexamethasone-alone to the relacorilant + dexamethasone treatments)”.

With `CC(C)(C)c1[nH]cnc1/C=c1\[nH]c(=O)/c(=C/c2ccccc2)[nH]c1=O` [Plinabulin], the “IC50 (decrease in IC50 of the agent from dexamethasone-alone to relacorilant + dexamethasone)” value in assay [1] is “−”. With `C=C1C[C@@H]2CC[C@@]34C[C@H]5O[C@H]6[C@@H](O3)[C@H]3O[C@H](CC[C@@H]3O[C@H]6[C@H]5O4)CC(=O)C[C@@H]3[C@@H](OC)[C@@H](C[C@H](O)CN)O[C@H]3C[C@H]3O[C@@H](CC[C@@H]1O2)C[C@@H](C)C3=C` [Eribulin], in assay [1], the “IC50 (decrease in IC50 of the agent from dexamethasone-alone to relacorilant + dexamethasone)” value is given as “++ (>60% decrease in IC50 from the dexamethasone-alone to the relacorilant + dexamethasone treatments)”.

For the compound `N.N.O=C([O-])C1(C(=O)[O-])CCC1.[Pt+2]` [carboplatin], the cell viability result in assay [1] (OVCAR-5 with 100 nM dexamethasone, 1 nM to 2187 nM carboplatin) was “dose dependent”. As to `N.N.[Cl][Pt][Cl]` [cisplatin], in assay [1], the “IC50 (decrease in IC50 of the agent from dexamethasone-alone to relacorilant + dexamethasone)” value is reported as “+ (~10-59% decrease in IC50 from the dexamethasone-alone to the relacorilant + dexamethasone treatments)” and the “Max effect (increase in maximal cell toxicity of the agent from dexamethasone-alone to relacorilant + dexamethasone)” value is “+ (consistent ~0-40% increase in toxicity at high doses of chemotherapeutic from the dexamethasone-alone to the relacorilant + dexamethasone treatments)”. In the case of `O=C(c1cc(Cc2n[nH]c(=O)c3ccccc23)ccc1F)N1CCN(C(=O)C2CC2)CC1` [Olaparib], in assay [1], the “IC50 (decrease in IC50 of the agent from dexamethasone-alone to relacorilant + dexamethasone)” value is listed as “−” and the “Max effect (increase in maximal cell toxicity of the agent from dexamethasone-alone to relacorilant + dexamethasone)” value is recorded as “−”. Turning to `O=c1[nH]cc(F)c(=O)[nH]1` [5-FU], in assay [1], the “IC50 (decrease in IC50 of the agent from dexamethasone-alone to relacorilant + dexamethasone)” value is given as “+ (~10-59% decrease in IC50 from the dexamethasone-alone to the relacorilant + dexamethasone treatments)” and the “Max effect (increase in maximal cell toxicity of the agent from dexamethasone-alone to relacorilant + dexamethasone)” value is on record as “−”.
